Source: patent publication US4835152A, “1-(4-Aminophenyl)-4-methyl-7,8-methylenedioxy-3,4-dihydro-5H-2,3-b enzodiazepine and acid addition salts thereof same” (Biogal Gyogyszergyar, priority 1986, dated 1989)

How the values were obtained:
[1] = Examination of stereotypy in rats (method of Costall and Naylor); assay type: in vivo; design: Stereotypy, average score: scale not given here; conditions: for Stereotypy (in words): rats
Excerpt: 3. Examination of stereotypy in rats
For the measurement of stereotypy the method of B. Costall and R. I. Naylor [Eur. J. Pharmacol. 18, 95 (1972)] was used. The score values in Table 4 are average score values obtained at the time of reading.

[2] = tested on: haloperidol-induced decrease in SMA; experiment: Measurement of the haloperidol-antagonistic effect in mice (spontaneous motor activity, SMA); assay type: in vivo, male CFLP mice
Experimental: 2. Measurement of the haloperidol-antagonistic effect in mice
Male CFLP mice weighing 20 to 22 g were treated intraperitoneally with a dose of 0.5 mg/kg of 4-[4-(4-chlorophenyl)-4-hydroxy-1-piperidinyl]-1-(4-fluorophenyl)-1-butanone (haloperidol) and the spontaneous motor activity (SMA) was measured, in relation to the data obtained in the controls, by a capacitance-sensitive motimeter. Another group of the test animals was treated also with a dose of 30 mg/kg of the compound of Example 1, 15 minutes after the administration of haloperidol.

[3] = Motility studies on mice (spontaneous motor activity, two-hour experiment); assay type: in vivo, male mice; conditions: for Increase in motility: 2 h
Experimental: 1.a. Motility studies on mice
For studying how the compound prepared according to Example 1 increases the motility in male mice, two-hour experiments were carried out. In order to determine the spontaneous motor activity, the component of hunger-activitywas excluded (the mice were not fasted), thus only the exploratory activity was recorded. The test animals were placed into the observation box immediately after the intraperitoneal treatment.

[4] = Motility studies on rats (2 hours); assay type: in vivo, male CFY rats; conditions: for Increase in motility: 2 h
Experimental: 1.b. Motility studies on rats
Male CFY rats weighing 120 to 140 g were treated intraperitoneally in groups of three with a dose of 10, 20, 25 or 30 mg/kg of the compound of Example 1, and were immediately placed into the observation box. The experiment lasted for 2 hours.

[5] = tested on: oxotremorine-induced tremor; experiment: Inhibition of oxotremorine-induced tremor in mice (method of Rathbun and Slater); assay type: in vivo, male CFLP mice; conditions: for Inhibition in relation to control group: oxotremorine 1 mg/kg i.p. 1 h later
Experimental: (§1) 4. Inhibition of oxotremorine in mice
(§2) The examinations were carried out according to the method of R. C. Rathbun and I. H. Slater [Psychopharm. 4, 114 (1963)]. One hour after male, starving CFLP mice were orally pre-treated with a dose of 6.25, 12.5 or 25.0 mg/kg of the compound of Example 1, they were intraperitoneally treated with a dose of 1 mg/kg of 1-[4-(1-pyrrolidinyl)-2-butinyl]-2-pyrrolidinone (oxotremorine).
(§3) The inhibition of oxotremorine-induced tremor and salivation exerted by the compound of Example 1 was measured in relation to the control group treated with oxotremorine only. The strength of the inhibition was expressed in scores (0, 0.5, 1, 2 or 3).

[6] = tested on: oxotremorine-induced salivation; experiment: Inhibition of oxotremorine-induced salivation in mice; assay type: in vivo, male CFLP mice; conditions: 6.25-25.0 mg/kg p.o.
Experimental: as §1, §2, §3

Acute toxicity in mice = conditions: mouse, in vivo
Excerpt: (§4) The acute toxicity values (LD50) of the compound of Example 1: […]

Acute toxicity in rats = conditions: rat, in vivo
Excerpt: as §4

Emetic side-effect = conditions: in vivo
[7] = Dependence studies, DAF (drug admixed food) method; conditions: 0.05% (w/w) in food, 6 weeks, average daily dose 40 mg/kg, two weeks after withdrawal, listed as compound of the invention

CC(C)C[C@H]1C(=O)N2CCC[C@H]2[C@]2(O)O[C@](NC(=O)[C@@H]3C=C4c5cccc6[nH]c(Br)c(c56)C[C@H]4N(C)C3)(C(C)C)C(=O)N12 [Bromocriptine, reference compound]
Stereotypy, average score ([1]; 5 mg/kg i.p., 30 min): 0.2
Stereotypy, average score ([1]; 5 mg/kg i.p., 60 min): 0.6
Stereotypy, average score ([1]; 5 mg/kg i.p., 120 min): 0.8
Stereotypy, average score ([1]; 5 mg/kg i.p., 180 min): 1.1
Stereotypy, average score ([1]; 5 mg/kg i.p., 240 min): 0.4
Stereotypy, average score ([1]; 10 mg/kg i.p., 30 min): 0.5
Stereotypy, average score ([1]; 10 mg/kg i.p., 60 min): 1.0
Stereotypy, average score ([1]; 10 mg/kg i.p., 120 min): 1.8
Stereotypy, average score ([1]; 10 mg/kg i.p., 180 min): 1.9
Stereotypy, average score ([1]; 10 mg/kg i.p., 240 min): 1.5
Stereotypy, average score ([1]; 20 mg/kg i.p., 30 min): 0.6
Stereotypy, average score ([1]; 20 mg/kg i.p., 60 min): 1.2
Stereotypy, average score ([1]; 20 mg/kg i.p., 120 min): 2.2
Stereotypy, average score ([1]; 20 mg/kg i.p., 180 min): 2.4
Stereotypy, average score ([1]; 20 mg/kg i.p., 240 min): 1.8
Stereotypy (in words) [1]: causes stereotypy

O=C(CCCN1CCC(O)(c2ccc(Cl)cc2)CC1)c1ccc(F)cc1 [Haloperidol, 4-[4-(4-chlorophenyl)-4-hydroxy-1-piperidinyl]-1-(4-fluorophenyl)-1-butanone, reference compound]
Decrease in SMA ([2]; haloperidol alone, 0.5 mg/kg i.p., relative to controls): 62.6%

CC1Cc2cc3c(cc2C(c2ccc(N)cc2)=NN1)OCO3 (centres unmarked) [Example 1, 1-(4-aminophenyl)-4-methyl-7,8-methylenedioxy-3,4-dihydro-5H-2,3-benzodiazepine]
Increase in motility ([3]; 3 mg/kg i.p.): 15%
Increase in motility ([3]; 10 mg/kg i.p.): 131%
Increase in motility ([3]; 30 mg/kg i.p.): 473%
Effect on motility or spontaneous motor activity (in words) ([3]; i.p.): increases the motility or spontaneous motor activity of mice and rats in a dose-dependent manner
Increase in motility ([4]; 10 mg/kg i.p.): 21%
Increase in motility ([4]; 20 mg/kg i.p.): 87%
Increase in motility ([4]; 25 mg/kg i.p.): 106%
Increase in motility ([4]; 30 mg/kg i.p.): 462%
Effect on motility or spontaneous motor activity (in words) ([4]; i.p.): increases the motility or spontaneous motor activity of mice and rats in a dose-dependent manner
Antagonism of haloperidol-induced decrease in SMA ([2]; 30 mg/kg, 15 min after haloperidol 0.5 mg/kg i.p.): significantly antagonized
Decrease in SMA ([2]; haloperidol 0.5 mg/kg i.p. + compound of Example 1 30 mg/kg i.p. 15 min later): 17.1%
Stereotypy, average score ([1]; 3.125 mg/kg i.p., 15 min): 0.3
Stereotypy, average score ([1]; 3.125 mg/kg i.p., 30 min): 0.3
Stereotypy, average score ([1]; 3.125 mg/kg i.p., 60 min): 0.1
Stereotypy, average score ([1]; 3.125 mg/kg i.p., 90 min): 0
Stereotypy, average score ([1]; 3.125 mg/kg i.p., 120 min): 0
Stereotypy, average score ([1]; 3.125 mg/kg i.p., 180 min): 0
Stereotypy, average score ([1]; 3.125 mg/kg i.p., 240 min): 0
Stereotypy, average score ([1]; 6.25 mg/kg i.p., 15 min): 1.0
Stereotypy, average score ([1]; 6.25 mg/kg i.p., 30 min): 1.3
Stereotypy, average score ([1]; 6.25 mg/kg i.p., 60 min): 0.3
Stereotypy, average score ([1]; 6.25 mg/kg i.p., 90 min): 0
Stereotypy, average score ([1]; 6.25 mg/kg i.p., 120 min): 0
Stereotypy, average score ([1]; 6.25 mg/kg i.p., 180 min): 0
Stereotypy, average score ([1]; 6.25 mg/kg i.p., 240 min): 0
Stereotypy, average score ([1]; 6.25 mg/kg p.o., 15 min): 0.7
Stereotypy, average score ([1]; 6.25 mg/kg p.o., 30 min): 0.7
Stereotypy, average score ([1]; 6.25 mg/kg p.o., 60 min): 0.6
Stereotypy, average score ([1]; 6.25 mg/kg p.o., 90 min): 0
Stereotypy, average score ([1]; 6.25 mg/kg p.o., 120 min): 0
Stereotypy, average score ([1]; 6.25 mg/kg p.o., 180 min): 0
Stereotypy, average score ([1]; 6.25 mg/kg p.o., 240 min): 0
Stereotypy, average score ([1]; 12.5 mg/kg i.p., 15 min): 1.2
Stereotypy, average score ([1]; 12.5 mg/kg i.p., 30 min): 1.3
Stereotypy, average score ([1]; 12.5 mg/kg i.p., 60 min): 1.1
Stereotypy, average score ([1]; 12.5 mg/kg i.p., 90 min): 1.0
Stereotypy, average score ([1]; 12.5 mg/kg i.p., 120 min): 0
Stereotypy, average score ([1]; 12.5 mg/kg i.p., 180 min): 0
Stereotypy, average score ([1]; 12.5 mg/kg i.p., 240 min): 0
Stereotypy, average score ([1]; 12.5 mg/kg p.o., 15 min): 0.4
Stereotypy, average score ([1]; 12.5 mg/kg p.o., 30 min): 0.9
Stereotypy, average score ([1]; 12.5 mg/kg p.o., 60 min): 1.4
Stereotypy, average score ([1]; 12.5 mg/kg p.o., 90 min): 0.4
Stereotypy, average score ([1]; 12.5 mg/kg p.o., 120 min): 0
Stereotypy, average score ([1]; 12.5 mg/kg p.o., 180 min): 0
Stereotypy, average score ([1]; 12.5 mg/kg p.o., 240 min): 0
Stereotypy, average score ([1]; 25.0 mg/kg i.p., 15 min): 1.3
Stereotypy, average score ([1]; 25.0 mg/kg i.p., 30 min): 1.5
Stereotypy, average score ([1]; 25.0 mg/kg i.p., 60 min): 1.8
Stereotypy, average score ([1]; 25.0 mg/kg i.p., 90 min): 1.6
Stereotypy, average score ([1]; 25.0 mg/kg i.p., 120 min): 1.0
Stereotypy, average score ([1]; 25.0 mg/kg i.p., 180 min): 0.8
Stereotypy, average score ([1]; 25.0 mg/kg i.p., 240 min): 0.4
Stereotypy, average score ([1]; 25.0 mg/kg p.o., 15 min): 0.7
Stereotypy, average score ([1]; 25.0 mg/kg p.o., 30 min): 1.1
Stereotypy, average score ([1]; 25.0 mg/kg p.o., 60 min): 1.5
Stereotypy, average score ([1]; 25.0 mg/kg p.o., 90 min): 0.6
Stereotypy, average score ([1]; 25.0 mg/kg p.o., 120 min): 0.6
Stereotypy, average score ([1]; 25.0 mg/kg p.o., 180 min): 0.3
Stereotypy, average score ([1]; 25.0 mg/kg p.o., 240 min): 0
Stereotypy, average score ([1]; 50.0 mg/kg i.p., 15 min): 1.5
Stereotypy, average score ([1]; 50.0 mg/kg i.p., 30 min): 2.1
Stereotypy, average score ([1]; 50.0 mg/kg i.p., 60 min): 2.7
Stereotypy, average score ([1]; 50.0 mg/kg i.p., 90 min): 2.4
Stereotypy, average score ([1]; 50.0 mg/kg i.p., 120 min): 2.4
Stereotypy, average score ([1]; 50.0 mg/kg i.p., 180 min): 1.7
Stereotypy, average score ([1]; 50.0 mg/kg i.p., 240 min): 0.6
Stereotypy, average score ([1]; 50.0 mg/kg p.o., 15 min): 1.7
Stereotypy, average score ([1]; 50.0 mg/kg p.o., 30 min): 1.9
Stereotypy, average score ([1]; 50.0 mg/kg p.o., 60 min): 2.3
Stereotypy, average score ([1]; 50.0 mg/kg p.o., 90 min): 2.3
Stereotypy, average score ([1]; 50.0 mg/kg p.o., 120 min): 1.9
Stereotypy, average score ([1]; 50.0 mg/kg p.o., 180 min): 1.1
Stereotypy, average score ([1]; 50.0 mg/kg p.o., 240 min): 0.2
Stereotypy (in words) [1]: causes stereotypy. This effect develops earlier but it is somewhat weaker than the effect of bromocriptine
Inhibition in relation to control group ([5]; 6.25 mg/kg p.o.): 17%
Inhibition in relation to control group ([5]; 12.5 mg/kg p.o.): 50%
Inhibition in relation to control group ([5]; 25.0 mg/kg p.o.): 74%
ED50 ([5]; Mus musculus, po, range (9.5-19.1) printed in the next line): 13.5 mg/kg
Effect on oxotremorine-induced tremor (in words) ([5]; mice): significantly decreases the tremor
Effect on oxotremorine-induced salivation (in words) [6]: does not inhibit the oxotremorine-induced salivation
LD50 (Acute toxicity in mice; ip): 260 mg/kg
LD50 (Acute toxicity in mice; po): 300 mg/kg
LD50 (Acute toxicity in rats; ip): 250 mg/kg
LD50 (Acute toxicity in rats; po): 350 mg/kg
Emetic side-effect (Emetic side-effect): does not have the unfavourable side-effects of the known psychostimulants (emetic effect, proneness to dependence)
Withdrawal symptoms or signs of dependence [7]: does not have the unfavourable side-effects of the known psychostimulants (emetic effect, proneness to dependence)
